Key:
[1] = system: Sm^R MG1655 E. coli; experiment: Selection of resistant E. coli subpopulation in mouse gut with β-lactam in drinking water; assay type: in vivo; settings: mice on water containing streptomycin and ampicillin; gavaged 99.9% Amp^S / 0.1% Amp^R; within 1-2 days
Experimental: Mouse experiments with E. coli engraftment, antibiotic water, and phage treatment. Animal procedures were approved by the University of California, San Francisco (UCSF) Institutional Animal Care and Use Committee (IACUC), and animal experiments performed were in compliance with ethical regulations. Specific pathogen free female BALB/c mice from the vendor Taconic were used for all mouse experiments. Streptomycin water was prepared by dissolving USP grade streptomycin sulfate (VWR 0382) in autoclaved tap water to a final concentration of 5 mg/ml and passing through 0.45 μm filtration units. Mice were provided streptomycin water for 1 day, followed by oral gavage of 0.2 ml containing approximately 10^9 CFU of streptomycin-resistant E. coli. Mice were kept on streptomycin water thereafter to maintain colonization. For selection with β-lactam antibiotics, USP grade ampicillin sodium salt (Teknova A9510) or USP grade carbenicillin disodium salt (Teknova C2110) was also dissolved in the water to a final concentration of 1 mg/ml; carbenicillin was preferred for its increased stability over ampicillin (Bobrowski, M. & Borowski, E. et al., Microbiology, 68, 263-272 (1971)). Drinking water containing streptomycin was prepared fresh weekly; with the addition of a β-lactam antibiotic, it was prepared fresh every 3-4 days. […]

[2] = system: Sm^R E. coli MG1655 or W1655 F+; experiment: Eradication of sensitive E. coli colonizing the mouse gut by carbenicillin water; assay type: in vivo
Experimental: Mouse experiments with E. coli engraftment, antibiotic water, and phage treatment. Animal procedures were approved by the University of California, San Francisco (UCSF) Institutional Animal Care and Use Committee (IACUC), and animal experiments performed were in compliance with ethical regulations. Specific pathogen free female BALB/c mice from the vendor Taconic were used for all mouse experiments. Streptomycin water was prepared by dissolving USP grade streptomycin sulfate (VWR 0382) in autoclaved tap water to a final concentration of 5 mg/ml and passing through 0.45 μm filtration units. Mice were provided streptomycin water for 1 day, followed by oral gavage of 0.2 ml containing approximately 10^9 CFU of streptomycin-resistant E. coli. Mice were kept on streptomycin water thereafter to maintain colonization. For selection with β-lactam antibiotics, USP grade ampicillin sodium salt (Teknova A9510) or USP grade carbenicillin disodium salt (Teknova C2110) was also dissolved in the water to a final concentration of 1 mg/ml; carbenicillin was preferred for its increased stability over ampicillin (Bobrowski, M. & Borowski, E. et al., Microbiology, 68, 263-272 (1971)). Drinking water containing streptomycin was prepared fresh weekly; with the addition of a β-lactam antibiotic, it was prepared fresh every 3-4 days. For phage treatment, filtered phage solutions stored at −80° C. were thawed and used directly for oral gavage. Unfiltered phage solutions were precipitated by diluting approximately 5-fold in PBS, adding 0.2 volumes phage precipitation solution (20% PEG-8000, 2.5 M NaCl), incubating for 15 min on ice, pelleting at 15,000-21,000 g for 15 min at 4° C., resuspending in PBS, centrifuging to pellet insoluble matter, and filtering through 0.45 μm. Heat-inactivated phage were prepared by incubating 1 ml aliquots at 95° C. in a water bath for 30 min. Streptomycin-treated mice colonized with Sm^R E. coli were orally gavaged with 0.2 ml of phage and placed on drinking water containing both streptomycin and carbenicillin.
Enumeration and culture of E. coli from mouse feces. […]

[3] = Carbenicillin bioassay of culture supernatants; settings: co-cultures expressing β-lactamase; 4 hours of growth; detection limit approximately 2.5 μg/ml
Experimental: Carbenicillin bioassay. Cultures were sampled over time, cells were pelleted at 21,000 g for 1 min, and the supernatant was transferred to a new tube and frozen at −20° C. until all timepoints were collected. The supernatants were thawed and assayed using a Kirby-Bauer disk diffusion test. An overnight culture of the indicator organism (Bacillus subtilis 168) was diluted in saline to an OD600 of 0.1. A cotton swab was dipped into this dilution and spread across LB agar, antibiotic sensitivity disks (Fisher Scientific S70150A) were overlaid using tweezers, and 20 μl of the supernatant was applied to the disk. At the same time, carbenicillin standards were prepared from 1 μg/ml to 100 μg/ml and also applied to discs. Plates were incubated overnight at 37° C. and imaged the following morning.

[4] = system: gut microbiota; experiment: 16S rRNA gene sequencing of streptomycin-treated mice; assay type: in vivo; settings: streptomycin water 5 mg/ml
Experimental: 16S rRNA gene sequencing. Mouse fecal pellets were stored at −80° C. DNA was extracted from single pellets using a ZymoBIOMICS 96 MagBead DNA Kit and 16S rRNA gene sequencing was performed using a dual indexing strategy (Gohl, D. M. et al., Nat. Biotechnol. 34, 942-949 (2016)). Briefly, a 22-cycle primary PCR was performed using KAPA HiFi Hot Start DNA polymerase (KAPA KK2502) and V4 515F/806R Nextera primers. The reaction was diluted in UltraPure DNase/RNase-free water (Life Tech 0977-023) and used as template for a 10-cycle secondary (indexing) PCR using sample-specific dual indexing primers. […] The DNA was gel extracted using a MinElute Gel Extraction Kit (Qiagen 28604), quantified by qPCR using a KAPA Library Quantification Kit for Illumina Platforms (KAPA KK4824), and paired-end sequenced on the Illumina MiSeq platform. Data were processed using a 16S rRNA gene analysis pipeline (https://github.com/jbisanz/AmpliconSeq) based on QIIME2 (Bolyen, E. et al., Nat. Biotechnol. 37, 852-857 (2019)) incorporating DADA2 (Callahan, B. J. et al., Nat. Methods, 13, 581-583 (2016).), and analyzed using R packages qiime2R v0.99.23 (https://github.com/jbisanz/qiime2R), phyloseq v1.33.0 (McMurdie, P. J. & Holmes, S., PLoS One, 8, e61217 (2013)), and phylosmith v1.0.4 (Smith, S. D., Journal of Open Source Software 4, 1442 (2019)). […]

SMILES: CC1(C)S[C@@H]2[C@H](NC(=O)[C@H](N)c3ccccc3)C(=O)N2[C@H]1C(=O)O [ampicillin]
- increase in the percent of Amp^R E. coli in feces [1]: 3 orders of magnitude

SMILES: CC1(C)S[C@@H]2[C@H](NC(=O)C(C(=O)O)c3ccccc3)C(=O)N2[C@H]1C(=O)O (stereo partly drawn) [carbenicillin]
- E. coli colonization level over the course of treatment ([2]; all mice, below limit of detection): < 10^2 CFU/g
- mice with recolonization when selection was lifted ([2]; carbenicillin removed on Day 7): 5/6
- median E. coli colonization level ([2]; first day of carbenicillin in water, decreased from 9.6×10^9): 2.0×10^3 CFU/gram feces
- carbenicillin in culture supernatants [3]: not detectable

SMILES: [H]/N=C(/N)N[C@H]1[C@H](O)[C@@H](O)[C@H](O[C@@H]2O[C@@H](C)[C@](O)(C=O)[C@H]2O[C@@H]2O[C@@H](CO)[C@H](O)[C@@H](O)[C@@H]2NC)[C@@H](N/C(N)=N\[H])[C@@H]1O [streptomycin]
- effect on gut microbial community [4]: altered gut microbial community structure while decreasing diversity and colonization level

Source: patent US20230181659A1, “PHAGE-MEDIATED DELIVERY OF GENES TO GUT MICROBIOME” (priority 2020, published 2023)
